This is an account of results in patent US9999619B2, “Piperidin-4-yl azetidine derivatives as JAK1 inhibitors” (Incyte Corporation, priority 2010, dated 2018).

What is called pIC50 is the negative decadic logarithm of the IC50, by convention in mol/L. Low readings indicate a high IC50, high ones a low IC50.

Common to all, as to assay type: biochemical
One assay concerns the target Jak2 (a.a. 828-1132) (Homo sapiens (Human), UniProt O60674). As to the kind of experiment: In vitro JAK kinase assay (HTRF, phosphorylation of a biotinylated peptide), JAK2. Conditions: measured at 1 mM ATP. Put shortly:
(§1)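 Phosphorylation of a biotinylated peptide by purified His-tagged JAK catalytic domains (insect-cell baculovirus expression) ran 1 hr at room temperature. After stopping with EDTA, Eu-Py20 and SA-APC were bound for 40 minutes and HTRF measured.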
For orientation: In TR-FRET formats the signal depends on donor and acceptor labels being close together.

The target in assay [1] is human JAK1 (a.a. 837-1142) (Homo sapiens, UniProt P23458). As to the kind of experiment: In vitro JAK kinase assay (HTRF, phosphorylation of a biotinylated peptide), JAK1. The settings on record: measured at 1 mM ATP. Put shortly:
as §1

Assay [2] deals with human JAK1 (a.a. 837-1142). The assay is described as above. The settings on record: ratio of JAK2 IC50 to JAK1 IC50, measured at 1 mM ATP. Put shortly: as §1

pIC50: −log10 of the molar value.

Sequence of Jak2 (a.a. 828-1132) (O60674 828-1132): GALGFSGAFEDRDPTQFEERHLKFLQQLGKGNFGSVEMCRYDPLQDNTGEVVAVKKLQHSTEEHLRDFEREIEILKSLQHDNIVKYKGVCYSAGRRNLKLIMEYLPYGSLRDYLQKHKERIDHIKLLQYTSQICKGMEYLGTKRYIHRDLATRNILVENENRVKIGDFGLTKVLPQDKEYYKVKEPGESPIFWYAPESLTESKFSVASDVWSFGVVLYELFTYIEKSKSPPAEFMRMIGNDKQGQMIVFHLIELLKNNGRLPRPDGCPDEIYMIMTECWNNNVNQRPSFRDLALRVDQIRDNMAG

Take `N#CCC1(n2cc(-c3ncnc4[nH]ccc34)cn2)CN(C2CCN(C(=O)c3ccc(F)cc3F)CC2)C1` [Example 42, {1-[1-(2,4-difluorobenzoyl)piperidin-4-yl]-3-[4-(7H-pyrrolo[2,3-d]pyrimidin-4-yl)-1H-pyrazol-1-yl]azetidin-3-yl}acetonitrile]: the pIC50 against Jak2 (a.a. 828-1132) was at least 8.00; in assay [1], at least 8.30. In addition, the “IC50 Ratio JAK2/JAK1” value in assay [2] turned out to be 6.7.
In the case of `N#CCC1(n2ccc(-c3ncnc4[nH]ccc34)c2)CN(C2CCN(C(=O)c3cc(F)cc(C#N)c3)CC2)C1` [Example 263, 3-[(4-{3-(cyanomethyl)-3-[3-(7H-pyrrolo[2,3-d]pyrimidin-4-yl)-1H-pyrrol-1-yl]azetidin-1-yl}piperidin-1-yl)carbonyl]-5-fluorobenzonitrile], the pIC50 on Jak2 (a.a. 828-1132) was 7.00 to 7.30; in assay [1], at least 8.30. Besides, the “IC50 Ratio JAK2/JAK1” value in assay [2] was found to be 12.2.
For `N#CCC1(n2ccc(-c3ncnc4[nH]ccc34)c2)CN(C2CCN(C(=O)c3cccs3)CC2)C1` [Example 271, {3-[3-(7H-pyrrolo[2,3-d]pyrimidin-4-yl)-1H-pyrrol-1-yl]-1-[1-(2-thienylcarbonyl)piperidin-4-yl]azetidin-3-yl}acetonitrile] the same measures were 7.30 to 8.00, at least 8.30 and 7.8.
In the same order, the values of `N#CCC1(n2ccc(-c3ncnc4[nH]ccc34)c2)CN(C2CCN(C(=O)c3ccnc(C(F)(F)F)n3)CC2)C1` [Example 345, [3-[3-(7H-Pyrrolo[2,3-d]pyrimidin-4-yl)-1H-pyrrol-1-yl]-1-(1-{[2-(trifluoromethyl)pyrimidin-4-yl]carbonyl}piperidin-4-yl)azetidin-3-yl]acetonitrile] are 7.00 to 7.30, 7.70 to 8.30 and 11.9.
In the case of `N#CCC1(n2cc(-c3ncnc4[nH]ccc34)cn2)CN(C2CCN(C(=O)c3cncc(C(F)(F)F)n3)CC2)C1` [Example 86, [3-[4-(7H-pyrrolo[2,3-d]pyrimidin-4-yl)-1H-pyrazol-1-yl]-1-(1-{[6-(trifluoromethyl)pyrazin-2-yl]carbonyl}piperidin-4-yl)azetidin-3-yl]acetonitrile], the pIC50 on Jak2 (a.a. 828-1132) was 7.00 to 7.30; in assay [1], at least 8.30. Further, the “IC50 Ratio JAK2/JAK1” value in assay [2] is given as 19.4.
For `N#CCC1(n2cc(-c3ncnc4[nH]ccc34)cn2)CN(C2CCN(C(=O)Nc3cc(F)cc(F)c3)CC2)C1` [Example 175, 4-{3-(cyanomethyl)-3-[4-(7H-pyrrolo[2,3-d]pyrimidin-4-yl)-1H-pyrazol-1-yl]azetidin-1-yl}-N-(3,5-difluorophenyl)piperidine-1-carboxamide] the same measures were at least 8.00, at least 8.30 and 3.6.
For `N#CCC1(n2cc(-c3ncnc4[nH]ccc34)cn2)CN(C2CCN(C(=O)C3CCCC3)CC2)C1` [Example 101, {1-[1-(cyclopentylcarbonyl)piperidin-4-yl]-3-[4-(7H-pyrrolo[2,3-d]pyrimidin-4-yl)-1H-pyrazol-1-yl]azetidin-3-yl}acetonitrile] the same measures were under 7.00, 7.70 to 8.30 and 8.3.
For `CN(C)c1ccc(C(=O)N2CCC(N3CC(CC#N)(n4cc(-c5ncnc6[nH]ccc56)cn4)C3)CC2)cc1C#N` [Example 59, 5-[(4-{3-(cyanomethyl)-3-[4-(7H-pyrrolo[2,3-d]pyrimidin-4-yl)-1H-pyrazol-1-yl]azetidin-1-yl}piperidin-1yl)carbonyl]-2-(dimethylamino)benzonitrile] the same measures were at least 8.00, at least 8.30 and 4.6.
For the compound `N#CCC1(n2cc(-c3ncnc4[nH]ccc34)cn2)CN(C2CCN(C(=O)c3ccc(Cl)s3)CC2)C1` [Example 77, {1-{1-[(5-chloro-2-thienyl)carbonyl]piperidin-4-yl}-3-[4-(7H-pyrrolo[2,3-d]pyrimidin-4-yl)-1H-pyrazol-1-yl]azetidin-3-yl}acetonitrile], the pIC50 against Jak2 (a.a. 828-1132) is at least 8.00; in assay [1], at least 8.30. Further, the “IC50 Ratio JAK2/JAK1” value in assay [2] is 5.5.
On to `COc1cccc(F)c1CN1CCC(N2CC(CC#N)(n3cc(-c4ncnc5[nH]ccc45)cn3)C2)CC1` [Example 218, {1-[1-(2-fluoro-6-methoxybenzyl)piperidin-4-yl]-3-[4-(7H-pyrrolo[2,3-d]pyrimidin-4-yl)-1H-pyrazol-1-yl]azetidin-3-yl}acetonitrile], for which the pIC50 on Jak2 (a.a. 828-1132) is 7.00 to 7.30; in assay [1] it was 7.52 to 7.70. The “IC50 Ratio JAK2/JAK1” value in assay [2] was 2.6.
For `N#CCC1(n2cc(-c3ncnc4[nH]ccc34)cn2)CN(C2CCN(C(=O)C3(c4ccccc4)CC3)CC2)C1` [Example 110, {1-{1-[(1-phenylcyclopropyl)carbonyl]piperidin-4-yl}-3-[4-(7H-pyrrolo[2,3-d]pyrimidin-4-yl)-1H-pyrazol-1-yl]azetidin-3-yl}acetonitrile] the same measures were 7.30 to 8.00, 7.70 to 8.30 and 1.6.
In the same order, the values of `N#CCC1(n2cc(-c3ncnc4[nH]ccc34)cn2)CN(C2CCN(C(=O)c3cc(CO)nc(C(F)(F)F)n3)CC2)C1` [Example 381, {1-(1-{[6-(hydroxymethyl)-2-(trifluoromethyl)pyrimidin-4-yl]carbonyl}piperidin-4-yl)-3-[4-(7H-pyrrolo[2,3-d]pyrimidin-4-yl)-1H-pyrazol-1-yl]azetidin-3-yl}acetonitrile] are 7.30 to 8.00, at least 8.30 and 20.
Take `N#CCC1(n2cc(-c3ncnc4[nH]ccc34)cn2)CN(C2CCN(C(=O)OCC3CC3)CC2)C1` [Example 391, cyclopropylmethyl 4-{3-(cyanomethyl)-3-[4-(7H-pyrrolo[2,3-d]pyrimidin-4-yl)-1H-pyrazol-1-yl]azetidin-1-yl}piperidine-1-carboxylate]: the pIC50 on Jak2 (a.a. 828-1132) is 7.00 to 7.30; in assay [1], 7.70 to 8.30. Also, the “IC50 Ratio JAK2/JAK1” value in assay [2] came out at 10.6.
For the compound `N#CCC1(n2cc(-c3ccnc4[nH]ccc34)cn2)CN(C2CCN(C(=O)Nc3ccc(C#N)cc3C(F)(F)F)CC2)C1` [Example 311, 4-{3-(cyanomethyl)-3-[4-(1H-pyrrolo[2,3-b]pyridin-4-yl)-1H-pyrazol-1-yl]azetidin-1-yl}-N-[4-cyano-2-(trifluoromethyl)phenyl]piperidine-1-carboxamide], the pIC50 was under 7.00 at Jak2 (a.a. 828-1132) and 7.70 to 8.30 in assay [1]. In assay [2], the “IC50 Ratio JAK2/JAK1” value worked out at 11.1.
In the same order, the values of `N#CCC1(n2cc(-c3ccnc4[nH]ccc34)cn2)CN(C2CCN(C(=O)Nc3ccc(F)cc3F)CC2)C1` [Example 304, 4-{3-(cyanomethyl)-3-{4-(1H-pyrrolo[2,3-b]pyridin-4-yl)-1H-pyrazol-1-yl]azetidin-1-yl}-N-(2,4-difluorophenyl)piperidine-1-carboxamide] are 7.30 to 8.00, at least 8.30 and 10.3.
Consider `N#CCC1(n2cc(-c3c(F)cnc4[nH]ccc34)cn2)CN(C2CCN(C(=O)c3ccncc3F)CC2)C1` [Example 320, {1-[1-(3-fluoroisonicotinoyl)piperidin-4-yl]-3-[4-(5-fluoro-1H-pyrrolo[2,3-b]pyridin-4-yl)-1H-pyrazol-1-yl]azetidin-3-yl}acetonitrile], for which the negative logarithm of the IC50 (pIC50) is 7.30 to 8.00 on Jak2 (a.a. 828-1132) and at least 8.30 in assay [1]. Also, the “IC50 Ratio JAK2/JAK1” value in assay [2] amounted to 2.8.
